Experiment [1] concerns the target COVID-19 (nCoV-2019, SARS-CoV2) Mpro (Severe acute respiratory syndrome coronavirus 2, UniProt P0DTD1). Put plainly: COVID-19 (nCoV-2019, SARS-CoV2) Mpro enzymatic assay. Format: biochemical. Conditions: 25 nM Mpro, 25 μM substrate; read-out: COVID-19 Mpro IC50.
The next experiment concerns the target 229E Mpro (Human coronavirus 229E, UniProt P0C6X1). The experiment in a line: 229E Mpro enzymatic assay (standard methods, SARS-CoV2 Mpro assay given as exemplary). Format: biochemical, human coronavirus (HCov) 229E. A digest of the protocol: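 Run by standard methods, with the SARS-CoV-2 Mpro protocol given as the model: E. coli-expressed C-His6 protease at 25 nM and substrate at 25 μM (Km 13.5 μM). Buffer pH 7.3 with 5 mM TCEP and 0.1% BSA; % inhibition versus controls fitted to variable-slope log(inhibitor)-response for IC50.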

The subject of the next experiment is HCov OC43. The experiment in a line: HCoV OC43 cytopathic effect (CPE) assay, CellTiter Glo. Format: cell-based, human coronavirus (HCov) OC43. On the technique in general: Cytopathic effects are the visible damage that an infection or toxin causes in cultured cells.
The mark [2] stands for this setting: read-out: OC43 IC50 (uM) MEDIAN, median.
The mark [3] stands for this setting: Betacoronavirus 1, OC43, read-out: OC43 IC50 (uM) MEDIAN, median.

Where two headings read alike, the source gives them in different places.

Sequence of 229E Mpro (P0C6X1 2966-3267): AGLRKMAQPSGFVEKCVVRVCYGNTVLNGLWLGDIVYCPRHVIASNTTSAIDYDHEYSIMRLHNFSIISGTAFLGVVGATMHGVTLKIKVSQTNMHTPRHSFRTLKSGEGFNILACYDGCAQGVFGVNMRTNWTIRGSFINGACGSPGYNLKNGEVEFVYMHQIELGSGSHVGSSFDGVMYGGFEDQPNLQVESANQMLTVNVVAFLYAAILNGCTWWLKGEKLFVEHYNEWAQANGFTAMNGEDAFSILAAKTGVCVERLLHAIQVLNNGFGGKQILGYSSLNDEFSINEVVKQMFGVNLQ

In the case of `CO[C@@H]1C[C@H](C(=O)N(c2ccc(S(F)(F)(F)(F)F)cc2)C(C(=O)NCC2(C)CCCN(C(=O)OC(C)(C)C)C2)c2cccnc2)N(C#N)C1` (single isomer, unassigned) [1290 Isomer 2], the IC50 in experiment [1] lay in the range of 10 to 30 µM; in the experiment on HCov OC43 (setting [2]), 2 to 10 µM. The EC50 at 229E Mpro (229E Mpro EC50) is 2 to 10 µM.
On to `CO[C@@H]1C[C@H](C(=O)N(c2ccc(S(F)(F)(F)(F)F)cc2)C(C)(C(=O)NC2CCC(F)(F)CC2)c2cnccn2)N(C#N)C1` (single isomer, unassigned) [1299 Isomer 1], for which the IC50 (in experiment [1]; in the experiment with HCov OC43 (setting [3])) was 2 to 10 µM each time. In addition, at 229E Mpro (229E Mpro EC50), the EC50 is < 2 µM.
Regarding `CO[C@@H]1C[C@H](C(=O)N(c2ccc(S(F)(F)(F)(F)F)cc2)C(C)(C(=O)NC2CCC(F)(F)CC2)c2cnccn2)N(C#N)C1` (single isomer, unassigned) [1299 Isomer 2], the IC50 (in experiment [1]; in the experiment with HCov OC43 (setting [2])) was < 2 µM throughout. Besides, the EC50 on 229E Mpro (read-out: 229E Mpro EC50) was < 2 µM.
Turning to `CO[C@@H]1C[C@H](C(=O)N(c2ccc(S(F)(F)(F)(F)F)cc2)C(C(=O)NC(C)C2CCCCN2C(=O)OC(C)(C)C)c2cccnc2)N(C#N)C1` (single isomer, unassigned) [1303 Isomer 1], the 50% inhibitory concentration (IC50) (in experiment [1]; in the experiment with HCov OC43 (setting [2])) was 2 to 10 µM throughout. For the same compound, the EC50 on 229E Mpro (229E Mpro EC50) was < 2 µM.
Take `CO[C@@H]1C[C@H](C(=O)N(c2ccc(S(F)(F)(F)(F)F)cc2)C(C(=O)NC(C)C2CCCCN2C(=O)OC(C)(C)C)c2cccnc2)N(C#N)C1` (single isomer, unassigned) [1303 Isomer 2.1]: the IC50 in experiment [1] was 2 to 10 µM; in the experiment on HCov OC43 (setting [2]) it was 10 to 30 µM. At 229E Mpro (229E Mpro EC50), this compound displayed a concentration for a half-maximal effect (EC50) of 2 to 10 µM.
`CO[C@@H]1C[C@H](C(=O)N(c2ccc(S(F)(F)(F)(F)F)cc2)C(C(=O)NC(C)C2CCCCN2C(=O)OC(C)(C)C)c2cccnc2)N(C#N)C1` (single isomer, unassigned) [1303 Isomer 2.2]: the IC50 (in experiment [1]; in the experiment with HCov OC43 (setting [2])) was < 2 µM in each case. Moreover, the EC50 at 229E Mpro (229E Mpro EC50) was < 2 µM.
As to `CO[C@@H]1C[C@H](C(=O)N(c2ccc(S(F)(F)(F)(F)F)cc2)C(C(=O)NC(C)C2CCCCN2C(=O)OC(C)(C)C)c2cccnc2)N(C#N)C1` (single isomer, unassigned) [1303 Isomer 2], the IC50 (in experiment [1]; with HCov OC43 (setting [2])) was < 2 µM each time. The half-maximal effective concentration (EC50) at 229E Mpro (229E Mpro EC50) is < 2 µM.
In the case of `CO[C@@H]1C[C@H](C(=O)N(c2ccc(S(F)(F)(F)(F)F)cc2)C(C(=O)NC(C)C2CCCCN2C(=O)OC(C)(C)C)c2cccnc2)N(C#N)C1` (single isomer, unassigned) [1303 Isomer 3.1], the IC50 (in experiment [1]; with HCov OC43 (setting [2])) was < 2 µM each time. In addition, the EC50 at 229E Mpro (229E Mpro EC50) was < 2 µM.
`CO[C@@H]1C[C@H](C(=O)N(c2ccc(S(F)(F)(F)(F)F)cc2)C(C(=O)NC(C)C2CCCCN2C(=O)OC(C)(C)C)c2cccnc2)N(C#N)C1` (single isomer, unassigned) [1303 Isomer 3.2]: the IC50 (in experiment [1]; in the experiment with HCov OC43 (setting [2])) was > 30 µM in each case. Moreover, the EC50 at 229E Mpro (229E Mpro EC50) was in the range of 10 to 30 µM.
With `CO[C@@H]1C[C@H](C(=O)N(c2ccc(S(F)(F)(F)(F)F)cc2)C(C(=O)NC(C)C2CCCCN2C(=O)OC(C)(C)C)c2cccnc2)N(C#N)C1` (single isomer, unassigned) [1303 Isomer 3], the IC50 (in experiment [1]; in the experiment with HCov OC43 (setting [2])) was < 2 µM in each case. Further, on 229E Mpro (229E Mpro EC50), the EC50 was < 2 µM.
Regarding `Cc1nc[nH]c1C(C(=O)NC1CCC(F)(F)CC1)N(C(=O)[C@H]1C[C@@](C)(O)CN1C#N)c1ccc(S(F)(F)(F)(F)F)cc1` (single isomer, unassigned) [1324 Isomer 1], the IC50 (in experiment [1]; in the experiment with HCov OC43 (setting [2])) was > 30 µM each time. Moreover, at 229E Mpro (229E Mpro EC50), the concentration for a half-maximal effect (EC50) lay in the range of 10 to 30 µM.
Take `Cc1nc[nH]c1C(C(=O)NC1CCC(F)(F)CC1)N(C(=O)[C@H]1C[C@@](C)(O)CN1C#N)c1ccc(S(F)(F)(F)(F)F)cc1` (single isomer, unassigned) [1324 Isomer 2]: the IC50 in experiment [1] fell in the range of 10 to 30 µM; in the experiment with HCov OC43 (setting [2]), 2 to 10 µM. On 229E Mpro (read-out: 229E Mpro EC50), the EC50 lay in the range of 10 to 30 µM.
For the compound `C[C@H](NC(=O)C(c1cncc(F)c1)N(C(=O)[C@H]1C[C@@](C)(O)CN1C#N)c1ccc(S(F)(F)(F)(F)F)cc1)c1ccccc1` (single isomer, unassigned) [1328 Isomer 1], the IC50 (in experiment [1]; in the experiment on HCov OC43 (setting [3])) was < 2 µM each time. The EC50 at 229E Mpro (229E Mpro EC50) was < 2 µM.
For `C[C@H](NC(=O)C(c1cncc(F)c1)N(C(=O)[C@H]1C[C@@](C)(O)CN1C#N)c1ccc(S(F)(F)(F)(F)F)cc1)c1ccccc1` (single isomer, unassigned) [1328 Isomer 2], the IC50 (in experiment [1]; in the experiment on HCov OC43 (setting [2])) was 2 to 10 µM each time. At 229E Mpro (read-out: 229E Mpro EC50), the half-maximal effective concentration (EC50) was < 2 µM.
Take `C[C@@]1(O)C[C@H](C(=O)N(c2ccc(-c3ccccc3)cc2)C(C(=O)NC2CCC(F)(F)CC2)c2cncc(F)c2)N(C#N)C1` (single isomer, unassigned) [1330 Isomer 1]: the IC50 (in experiment [1]; with HCov OC43 (setting [2])) was < 2 µM in each case. At 229E Mpro (229E Mpro EC50), the EC50 was < 2 µM.
Take `C[C@@]1(O)C[C@H](C(=O)N(c2ccc(-c3ccccc3)cc2)C(C(=O)NC2CCC(F)(F)CC2)c2cncc(F)c2)N(C#N)C1` (single isomer, unassigned) [1330 Isomer 2]: the IC50 in experiment [1] was in the range of 2 to 10 µM; in the experiment on HCov OC43 (setting [2]), 10 to 30 µM. Also, the EC50 on 229E Mpro (229E Mpro EC50) lay within 2 to 10 µM.
Regarding `O=C(NC1CCC(F)(F)CC1)C(c1cncc(F)c1)N(C(=O)c1cnc[nH]1)c1ccc(C2CC2)cc1F` (single isomer, unassigned) [1336 Isomer 1, N-(4-cyclopropyl-2-fluorophenyl)-N-(2-((4,4-difluorocyclohexyl)amino)-1-(5-fluoropyridin-3-yl)-2-oxoethyl)-1H-imidazole-5-carboxamide], the IC50 was 10 to 30 µM in experiment [1] and > 30 µM with HCov OC43 (setting [3]). The compound also returned an EC50 at 229E Mpro (229E Mpro EC50) of 2 to 10 µM.
Take `O=C(NC1CCC(F)(F)CC1)C(c1cncc(F)c1)N(C(=O)c1cnc[nH]1)c1ccc(C2CC2)cc1F` (single isomer, unassigned) [1336 Isomer 2, N-(4-cyclopropyl-2-fluorophenyl)-N-(2-((4,4-difluorocyclohexyl)amino)-1-(5-fluoropyridin-3-yl)-2-oxoethyl)-1H-imidazole-5-carboxamide]: the IC50 in experiment [1] was 10 to 30 µM; in the experiment with HCov OC43 (setting [2]) it was > 30 µM. The same compound had a half-maximal effective concentration (EC50) at 229E Mpro (229E Mpro EC50) of 10 to 30 µM.
In the case of `O=C(NC1CCC(F)(F)CC1)C(c1cncc(F)c1)N(C(=O)c1cnc[nH]1)c1ccc(S(F)(F)(F)(F)F)cc1` (single isomer, unassigned) [1337 Isomer 1, N-[2-[(4,4-difluorocyclohexyl)amino]-1-(5-fluoro-3-pyridyl)-2-oxo-ethyl]-N-[4-(pentafluoro-λ6-sulfanyl)phenyl]-1H-imidazole-5-carboxamide], the results for the IC50 (in experiment [1]; in the experiment with HCov OC43 (setting [3])) were 10 to 30 µM and > 30 µM, respectively. This compound came in with an EC50 at 229E Mpro (229E Mpro EC50) of 2 to 10 µM.
On to `O=C(NC1CCC(F)(F)CC1)C(c1cncc(F)c1)N(C(=O)c1cnc[nH]1)c1ccc(S(F)(F)(F)(F)F)cc1` (single isomer, unassigned) [1337 Isomer 2, N-[2-[(4,4-difluorocyclohexyl)amino]-1-(5-fluoro-3-pyridyl)-2-oxo-ethyl]-N-[4-(pentafluoro-λ6-sulfanyl)phenyl]-1H-imidazole-5-carboxamide], for which the 50% inhibitory concentration (IC50) was 10 to 30 µM in experiment [1] and > 30 µM in the experiment on HCov OC43 (setting [2]). The EC50 at 229E Mpro (read-out: 229E Mpro EC50) is 2 to 10 µM.
Regarding `C[C@H](NC(=O)C(c1cncc(F)c1)N(C(=O)[C@H]1C[C@@](C)(O)CN1C#N)c1ccc(-c2ccccc2)cc1)c1ccccc1` (single isomer, unassigned) [1345 Isomer 1], the half-inhibitory concentration (IC50) (in experiment [1]; in the experiment on HCov OC43 (setting [2])) was < 2 µM each time. The 50% effective concentration (EC50) at 229E Mpro (229E Mpro EC50) was < 2 µM.
In the case of `C[C@H](NC(=O)C(c1cncc(F)c1)N(C(=O)[C@H]1C[C@@](C)(O)CN1C#N)c1ccc(-c2ccccc2)cc1)c1ccccc1` (single isomer, unassigned) [1345 Isomer 2], the values for the IC50 (in experiment [1]; in the experiment with HCov OC43 (setting [2])) were 2 to 10 µM and 10 to 30 µM, respectively. Besides, at 229E Mpro (229E Mpro EC50), the EC50 is 10 to 30 µM.
`C[C@H](NC(=O)C(c1cccnc1)N(C(=O)c1ccco1)c1ccc(-c2ccccc2)cc1)c1ccccc1` (single isomer, unassigned) [1353 Isomer 1]: the results for the IC50 (in experiment [1]; in the experiment on HCov OC43 (setting [3])) were < 2 µM and > 30 µM, respectively. Besides, at 229E Mpro (229E Mpro EC50), the EC50 is < 2 µM.
As to `C[C@H](NC(=O)C(c1cccnc1)N(C(=O)c1ccco1)c1ccc(-c2ccccc2)cc1)c1ccccc1` (single isomer, unassigned) [1353 Isomer 2], the IC50 (in experiment [1]; in the experiment on HCov OC43 (setting [2])) was > 30 µM each time. In addition, the EC50 on 229E Mpro (229E Mpro EC50) was > 30 µM.
For the compound `C[C@H](NC(=O)C(c1cnccn1)N(C(=O)c1ccco1)c1ccc(-c2ccccc2)cc1)c1ccccc1` (single isomer, unassigned) [1355 Isomer 1], the half-maximal inhibitory concentration (IC50) is < 2 µM in experiment [1] and > 30 µM in the experiment with HCov OC43 (setting [3]). Further, the EC50 at 229E Mpro (229E Mpro EC50) fell in the range of 2 to 10 µM.
In the case of `C[C@H](NC(=O)C(c1cnccn1)N(C(=O)c1ccco1)c1ccc(-c2ccccc2)cc1)c1ccccc1` (single isomer, unassigned) [1355 Isomer 2], the IC50 in experiment [1] was < 2 µM; in the experiment on HCov OC43 (setting [2]) it was > 30 µM. The EC50 at 229E Mpro (read-out: 229E Mpro EC50) lay in the range of 2 to 10 µM.
Regarding `CC(C)(C)c1ccc(N(C(=O)[C@H]2CCC(C)(C)N2C#N)C(C(=O)NC2CCCCC2)c2cccnc2)cc1` (single isomer, unassigned) [Compound 262 Isomer 1], the IC50 in experiment [1] is > 30 µM; with HCov OC43 (read-out: OC43 IC50 (uM) MEDIAN, median, listed as 262 Isomer 1) it was > 30 µM. Besides, the EC50 on 229E Mpro (229E Mpro EC50) is > 30 µM.

For orientation: IC50 means the point on the concentration scale where inhibition reaches its midpoint. A word on the EC50: it is the concentration at which the effect is half-maximal.

(Values after US20220380347A1, “INHIBITORS OF CYSTEINE PROTEASES AND METHODS OF USE THEREOF” (Pardes Biosciences, Inc., priority 2020, published 2022).)
